Source: PMC7377239, “Cardiovascular Effects of Polychlorinated Biphenyls and Their Major Metabolites” (Environmental Health Perspectives, 2020)
Read-outs that look alike come from different tables or passages of the source.

Tests used:
HUVECs [1] = test: Tube formation (tubulogenesis) assay in HUVECs, 18 h; assay type: cell-based, human; conditions: Homo sapiens, HUVEC, 18 h; for activity at 0.1 µM: 0.10 µM
Summary of the method: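 HUVECs (passage 1–5) seeded on reduced-growth-factor basement membrane and exposed to compounds overnight at 37°C, 5% CO2, in 2× maintenance medium with 12.5 ng/mL VEGF; 0.5% DMSO vehicle. Calcein AM-stained tube networks imaged and analysed; vehicle-normalized readouts fit to four-parameter logistic, POD set at one SD of vehicle means.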

HUVECs [2] = test: High-content imaging cytotoxicity in HUVECs, 24 h; assay type: cell-based, human; conditions: Homo sapiens, HUVEC, 24 h; for viability at 0.01 µM / activity at 0.01 µM / viability at 0.1 µM / activity at 0.1 µM / viability at 1 µM / activity at 1 µM / viability at 10 µM / activity at 10 µM / viability at 100 µM / activity at 100 µM: 0.00 µM = 100.00; for viability at 0.1 µM / activity at 0.1 µM: 0.10 µM
Summary of the method: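 Confluent HUVEC monolayers, passages 1–5, received test chemicals for 24 h. Cytotoxicity was scored from triple-stain high-content images, with PODs defined by a one-SD deviation from 0.5% DMSO vehicle controls.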

[3] = HUVECs, 0.00 µM = 100.00, read-out: huvec.mtl.18hr
[4] = HUVECs, 0.00 µM = 100.00, read-out: huvec.tlps.18hr
[5] = HUVECs, 0.00 µM = 100.00, read-out: huvec.tta.18hr
[6] = HUVECs, 0.00 µM = 100.00, read-out: huvec.ttl.18hr
[7] = HUVECs, 24 hr, read-out: huvec.cyto.24hr
[8] = HUVECs, 24 hr, read-out: huvec.mito.24hr
[9] = HUVECs, 24 hr, read-out: huvec.mitoint.24hr
[10] = HUVECs, 24 hr, read-out: huvec.nma.24hr
[11] = HUVECs, 24 hrs, read-out: huvec.tc.24hrs

Work on Oc1ccc(-c2cccc(Cl)c2)cc1Cl [4-OH PCB11] yielded an activity at 0.01 µM (HUVECs [1]; [3]) of 113%, an activity at 0.01 µM (HUVECs [1]; [4]) of 135% and an activity at 0.01 µM (HUVECs [1]; [5]) of 121%. It also gave an activity at 0.01 µM (HUVECs [1]; [6]) of 115%, an activity at 0.1 µM (HUVECs [1]; [3]) of 115% and an activity at 0.1 µM (HUVECs [1]; [4]) of 127%. The activity at 0.1 µM (HUVECs [1]; [5]) was 133%, the activity at 0.1 µM (HUVECs [1]; [6]) was 125% and the activity at 1 µM (HUVECs [1]; [3]) was 112%. For the same compound, the activity at 1 µM (HUVECs [1]; [4]) was 149%, the activity at 1 µM (HUVECs [1]; [5]) was 110% and the activity at 1 µM (HUVECs [1]; [6]) was 107%. It also gave an activity at 10 µM (HUVECs [1]; [3]) of 77.3%, an activity at 10 µM (HUVECs [1]; [4]) of 94.8% and an activity at 10 µM (HUVECs [1]; [5]) of 89.2%. It also gave an activity at 10 µM (HUVECs [1]; [6]) of 81.5%, an activity at 100 µM (HUVECs [1]; [3]) of 62.9% and an activity at 100 µM (HUVECs [1]; [4]) of 61.6%. It also gave an activity at 100 µM (HUVECs [1]; [5]) of 84.3%, an activity at 100 µM (HUVECs [1]; [6]) of 85.2% and a minimal effective concentration (HUVECs [1]; HUVECs, top concentration 100.00 µM, read-out: huvec.mtl.18hr POD) of 7.09 µM. The minimal effective concentration (HUVECs [1]; HUVECs, top concentration 100.00 µM, read-out: huvec.tlps.18hr POD) was 35.3 µM, the minimal effective concentration (HUVECs [1]; HUVECs, top concentration 100.00 µM, read-out: huvec.tta.18hr POD) was 100 µM and the minimal effective concentration (HUVECs [1]; HUVECs, top concentration 100.00 µM, read-out: huvec.ttl.18hr POD) was 4.15 µM. The viability at 0.01 µM (HUVECs [2]; [7]) was 113%, the activity at 0.01 µM (HUVECs [2]; [8]) was 112% and the activity at 0.01 µM (HUVECs [2]; [9]) was 86.8%. The activity at 0.01 µM (HUVECs [2]; [10]) was 95.3%, the viability at 0.1 µM (HUVECs [2]; [7]) was 87.7% and the activity at 0.1 µM (HUVECs [2]; [8]) was 86.9%. For the same compound, the activity at 0.1 µM (HUVECs [2]; [9]) was 109%, the activity at 0.1 µM (HUVECs [2]; [10]) was 105% and the viability at 1 µM (HUVECs [2]; [7]) was 97%. It also gave an activity at 1 µM (HUVECs [2]; [8]) of 96.1%, an activity at 1 µM (HUVECs [2]; [9]) of 101% and an activity at 1 µM (HUVECs [2]; [10]) of 97.1%. The viability at 10 µM (HUVECs [2]; [7]) was 43.8%, the activity at 10 µM (HUVECs [2]; [8]) was 26.1% and the activity at 10 µM (HUVECs [2]; [9]) was 10.9%. The activity at 10 µM (HUVECs [2]; [10]) was 69.2%, the viability at 100 µM (HUVECs [2]; [7]) was 34.6% and the activity at 100 µM (HUVECs [2]; [8]) was 0.26%. The activity at 100 µM (HUVECs [2]; [9]) was 2.7%, the activity at 100 µM (HUVECs [2]; [10]) was 73.6% and the minimal effective concentration (HUVECs [2]; HUVECs, 24 hr, top concentration 100.00 µM, read-out: huvec.cyto.24hr POD) was 1.37 µM. It also gave a minimal effective concentration (HUVECs [2]; HUVECs, 24 hr, top concentration 100.00 µM, read-out: huvec.mito.24hr POD) of 1.2 µM, a minimal effective concentration (HUVECs [2]; HUVECs, 24 hr, top concentration 100.00 µM, read-out: huvec.mitoint.24hr POD) of 5.43 µM and a minimal effective concentration (HUVECs [2]; HUVECs, 24 hr, top concentration 100.00 µM, read-out: huvec.nma.24hr POD) of 0.99 µM. It also gave a viability at 0.01 µM (HUVECs [2]; [11]) of 113%, a viability at 0.1 µM (HUVECs [2]; [11]) of 87.7% and a viability at 1 µM (HUVECs [2]; [11]) of 97%. It also gave a viability at 10 µM (HUVECs [2]; [11]) of 44.1%, a viability at 100 µM (HUVECs [2]; [11]) of 36.5% and a minimal effective concentration (HUVECs [2]; HUVECs, 24 hrs, top concentration 100.00 µM, read-out: huvec.tc.24hrs POD) of 1.37 µM.
In the case of Clc1cccc(-c2cccc(Cl)c2)c1 [PCB 11, 3,3′-Dichlorobiphenyl], the minimal effective concentration (HUVECs [1]; tube formation mtl, read-out: POD huvec.mtl.18hr) is reported as 100 µM, the minimal effective concentration (HUVECs [1]; tube formation tlps, read-out: POD huvec.tlps.18hr) is reported as 41.8 µM and the minimal effective concentration (HUVECs [1]; tube formation tta, read-out: POD huvec.tta.18hr) is reported as 100 µM. For the same compound, the minimal effective concentration (HUVECs [1]; tube formation ttl, read-out: POD huvec.ttl.18hr) was 100 µM, the minimal effective concentration (HUVECs [2]; cyto, 24 hr, read-out: POD huvec.cyto.24hr) was 11.2 µM and the minimal effective concentration (HUVECs [2]; mito, 24 hr, read-out: POD huvec.mito.24hr) was 9.68 µM. It also gave a minimal effective concentration (HUVECs [2]; mitoint, 24 hr, read-out: POD huvec.mitoint.24hr) of 7.62 µM, a minimal effective concentration (HUVECs [2]; nma, 24 hr, read-out: POD huvec.nma.24hr) of 9.3 µM and a minimal effective concentration (HUVECs [2]; tc, 24 hr, read-out: POD huvec.tc.24hr) of 11.2 µM.
